Holding throughout (assay type): physicochemical
The nature of data set [1]: Octanol-water distribution coefficient, log D of the compound at pH 0.82 by stir flask method.
A short description of data set [2]: Octanol-water partition coefficient, log P of noncharged form of compound at 0.15 M ionic strength by stir flask method.
Data set [3] in a line: Octanol-water partition coefficient, log P of zwitter ionic form of compound at 0.15 M ionic strength by stir flask method.
Data set [4] is described as follows: Octanol-water distribution coefficient, log D of the compound at pH 5.4 by stir flask method.
Data set [5] is described as follows: Octanol-water distribution coefficient, log D of the compound at pH 13.18 by stir flask method.
A short description of data set [6]: Octanol-water distribution coefficient, log D of the compound at pH 4.96 by stir flask method.

The values that follow come from ChEMBL document CHEMBL2163255, “Zwitterions can be predominant in membrane penetration of drugs: experimental proof” (J Med Chem, 2012).

Consider `CCOC(=O)C1=C[C@]2(CC)CCCN3CCc4c(n1c1ccccc41)[C@H]32`, for which the logD in data set [1] was 0.9. The logP in data set [2] was 4.75.
Take `CC[C@@]12C=C(C(=O)O)n3c4c(c5ccccc53)CCN(CCC1)[C@H]42`: the logD in data set [1] was -0.05; in data set [4] it was -0.97; in data set [5], -0.07. The logP in data set [3] is -1.03; in data set [2], 3.46.
Consider `CCOC(=O)C1=C[C@]2(CC)CCCN3CCc4c(n1c1ccccc41)[C@@H]32` [VINPOCETINE], for which the logD in data set [1] came out at 0.94. In data set [2], this compound came in with a logP of 4.45.
For the compound `CC[C@@]12C=C(C(=O)O)n3c4c(c5ccccc53)CCN(CCC1)[C@@H]42`, the logD is 0.13 in data set [1], -0.14 in data set [6] and 0.21 in data set [5]. The logP in data set [3] was -0.22; in data set [2], 3.98.
